According to patent US20180110795A1, “COMPOSITIONS AND METHODS FOR DETECTING AND TREATING PERIODONTAL DISEASE” (THE FORSYTH INSTITUTE, priority 2015, published 2018):

Columns and labels:
Type in all cases: cell-based
[1] = test system: oral microbial community; experiment: Principal component analysis of active community composition by 16S rRNA genes from cultures of plaque; conditions: cultures of plaque from a human subject, samples at 0, 3, 9 and 18 hours, all concentrations
Experimental: Principal component analysis was used to analyze changes in oral microbial community composition. Results of an analysis of the active community composition isolated from a human subject was carried out by analysis of 16S rRNA genes from cultures of plaque. The panel of species identified included 500 different species. Samples from the culture were taken at 0, 3, 9 and 18 hours.

[2] = test system: S. Genus probe 1; experiment: Active fraction of microbes by rRNA analysis in liquid culture of oral plaque; conditions: TPP at concentrations as low as 25 mM
Source text: (§1) Oral plaque containing Streptococcus sanguinis was obtained from a human subject and cultured in liquid culture in the presence or absence of TPP. S. sanguinis is a gram positive bacteria that binds to the surface if the teeth, where it acts as a tether for the attachment of other bacteria that form dental plaque, and contributes to the development of caries and periodontal disease. S. Sangunis has all of the genes required for anaerobic cobalamin biosynthesis.
(§2) Microbes exist in a range of metabolic states (e.g., dormant, active and growing) and analysis of ribosomal RNA (rRNA) is frequently employed to identify the ‘active’ fraction of microbes in samples. […] This is of particular interest given that other bacterial species may utilize and or depend on the cobalamin synthesized by S. Sanguinis, thus making this species a keystone esential to maintain a mature biofilm.

[3] = test system: Streptococcus sanguinis; experiment: as above; conditions: three hours of incubation
Source text: as §1, §2

[4] = test system: Rothia dentocariosa; experiment: as above; conditions: TPP at concentrations as low as 25 mM
Source text: as §1, §2

[5] = test system: Solobacterium moorei; experiment: as above; conditions: TPP at concentrations as low as 25 mM
Source text: as §1, §2

[6] = test system: S. intermedius; experiment: as above; conditions: TPP at concentrations as low as 25 mM
Source text: as §1, §2

[7] = test system: oral plaque; experiment: Plaque bacteria plated on blood agar and cultured with or without TPP; conditions: plaque bacteria from four human subjects on blood agar, various concentrations of TPP
Experimental: Dental plaque is a biofilm that builds up on teeth and contains bacteria associated with cavities, gingivitis, and periodontitis. Plaque samples were obtained from four human subjects. Plaque bacteria from each subject was plated on blood agar and cultured in the presence or absence of various concentrations of Sodium tripolyphospate (TPP), which inhibits Cob(I)alamin adenosyltransferase.

Q: Which results are given for O=P(O)(O)OP(=O)(O)OP(=O)(O)O [TPP, sodium tripolyphosphate]?
A: change in composition of bacterial communities [1]: affected all of the bacterial communities in similar ways at all concentrations; activity of S. Genus probe 1 [2]: significantly reduced; fraction of active S. Sanguinis vs control with no TPP ([3]; 25 mM TPP): significantly lower; fraction of active S. Sanguinis vs control with no TPP ([3]; 50 mM TPP): significantly lower; activity of Rothia dentocariosa [4]: significantly reduced; activity of Solobacterium moorei [5]: significantly reduced; activity of S. intermedius [6]: significantly reduced; oral plaque growth [7]: completely inhibited oral plaque growth in a dose dependent manner
